Data set [1] has as its system NCI-H460. The data set is described as follows: Induction of cell cycle arrest in human NCI-H460 cells assessed as accumulation of cells at G2/M phase at 0.1 uM for 24 hrs by Click-iT EdU Alexa Fluor 647 flow cytometric assay kit analysis (reference value: 1%). The format is functional.
Data set [2] has as its system NCI-H460. The data set is described as follows: Induction of cell cycle arrest in human NCI-H460 cells assessed as accumulation of cells at S phase at 0.1 uM for 24 hrs by Click-iT EdU Alexa Fluor 647 flow cytometric assay kit analysis (reference value: 56%). Format: functional. A general note: In flow cytometry, cells or beads pass a laser one at a time.
Data set [3] concerns NCI-H460. The data set is described as follows: Induction of cell cycle arrest in human NCI-H460 cells assessed as accumulation of cells at G0/G1 phase at 0.1 uM for 24 hrs by Click-iT EdU Alexa Fluor 647 flow cytometric assay kit analysis (reference value: 43%). Format: functional.
Data set [4] deals with DV-90. The data set can be described thus: Induction of cell cycle arrest in human DV-90 cells assessed as accumulation of cells at S phase at 1 uM for 24 hrs by Click-iT EdU Alexa Fluor 647 flow cytometric assay kit analysis (reference value: 31%). The format is functional.
In data set [5] the test system is DV-90. The data set is described as follows: Induction of cell cycle arrest in human DV-90 cells assessed as accumulation of cells at S phase at 0.5 uM for 24 hrs by Click-iT EdU Alexa Fluor 647 flow cytometric assay kit analysis (reference value: 31%). Format: functional.
In data set [6] the test system is DV-90. The data set can be described thus: Induction of cell cycle arrest in human DV-90 cells assessed as accumulation of cells at S phase at 0.25 uM for 24 hrs by Click-iT EdU Alexa Fluor 647 flow cytometric assay kit analysis (reference value: 31%). The format is functional.
The test system of data set [7] is DV-90. The data set is described as follows: Induction of cell cycle arrest in human DV-90 cells assessed as accumulation of cells at S phase at 0.1 uM for 24 hrs by Click-iT EdU Alexa Fluor 647 flow cytometric assay kit analysis (reference value: 31%). Format: functional.
The test system of data set [8] is NCI-H460. The data set can be described thus: Induction of cell cycle arrest in human NCI-H460 cells assessed as accumulation of cells at G0/G1 phase at 0.5 uM for 24 hrs by Click-iT EdU Alexa Fluor 647 flow cytometric assay kit analysis (reference value: 43%). The format is functional.
The subject of data set [9] is NCI-H460. The data set can be described thus: Induction of cell cycle arrest in human NCI-H460 cells assessed as accumulation of cells at G2/M phase at 0.25 uM for 24 hrs by Click-iT EdU Alexa Fluor 647 flow cytometric assay kit analysis (reference value: 1%). The format is functional.
The subject of data set [10] is NCI-H460. The data set can be described thus: Induction of cell cycle arrest in human NCI-H460 cells assessed as accumulation of cells at S phase at 0.25 uM for 24 hrs by Click-iT EdU Alexa Fluor 647 flow cytometric assay kit analysis (reference value: 56%). Format: functional.
Data set [11] relates to NCI-H460. The data set is described as follows: Induction of cell cycle arrest in human NCI-H460 cells assessed as accumulation of cells at G0/G1 phase at 0.25 uM for 24 hrs by Click-iT EdU Alexa Fluor 647 flow cytometric assay kit analysis (reference value: 43%). The format is functional.
Data set [12] has as its system NCI-H460. The data set is described as follows: Induction of cell cycle arrest in human NCI-H460 cells assessed as accumulation of cells at S phase at 0.5 uM for 24 hrs by Click-iT EdU Alexa Fluor 647 flow cytometric assay kit analysis (reference value: 56%). Format: functional.
Data set [13] concerns NCI-H460. The data set is described as follows: Induction of cell cycle arrest in human NCI-H460 cells assessed as accumulation of cells at G2/M phase at 0.5 uM for 24 hrs by Click-iT EdU Alexa Fluor 647 flow cytometric assay kit analysis (reference value: 1%). The format is functional.
Data set [14] deals with NCI-H460. The data set is described as follows: Induction of cell cycle arrest in human NCI-H460 cells assessed as accumulation of cells at G0/G1 phase at 1 uM for 24 hrs by Click-iT EdU Alexa Fluor 647 flow cytometric assay kit analysis (reference value: 43%). Format: functional.
Data set [15] has as its system NCI-H460. The data set is described as follows: Induction of cell cycle arrest in human NCI-H460 cells assessed as accumulation of cells at S phase at 1 uM for 24 hrs by Click-iT EdU Alexa Fluor 647 flow cytometric assay kit analysis (reference value: 56%). Format: functional.
Data set [16] has as its system NCI-H460. The data set can be described thus: Induction of cell cycle arrest in human NCI-H460 cells assessed as accumulation of cells at G2/M phase at 1 uM for 24 hrs by Click-iT EdU Alexa Fluor 647 flow cytometric assay kit analysis (reference value: 1%). Format: functional.
Data set [17] concerns NCI-H460. The data set can be described thus: Induction of apoptosis in human NCI-H460 cells assessed as necrotic cells at 2.5 uM for 24 hrs by annexin V-PI staining based flow cytometric analysis (reference value: 2.7%). Format: functional.
The subject of data set [18] is NCI-H1373. The data set is described as follows: Downregulation of c-MYC protein level in human NCI-H1373 cells 1 uM by Western blot analysis. The format is functional, cell-based. Particulars: time <= 24.0 hrs, TDE = time-dependent effect. In general terms: In western blotting, separated proteins are transferred to a membrane and probed.
The next data set deals with NCI-H2347. The data set can be described thus: Downregulation of FLIP mRNA expression level in human NCI-H2347 cells at 0.1 to 1 uM for 24 hrs by qRT-PCR analysis. The format is functional, cell-based. To be noted: dose 0.1-1 µM.
Data set [19] concerns DV-90. The data set can be described thus: Downregulation of XIAP protein expression level in human DV-90 cells at 1 uM for 24 hrs by […] analysis. The format is functional, cell-based.
Data set [20] concerns NCI-H460. The data set is described as follows: Downregulation of XIAP protein expression level in human NCI-H460 cells at 1 uM for 24 hrs by […] analysis. Format: functional, cell-based.
Data set [21] concerns A549. The data set can be described thus: Downregulation of c-MYC protein expression level in human A549 cells at 1 uM for 24 hrs by […] analysis. Format: functional, cell-based.
The test system of data set [22] is NCI-H1373. The data set is described as follows: Induction of TRAIL dependent apoptosis in human NCI-H1373 cells assessed as early apoptotic cells at 1 uM in presence of […] by annexin V-PI staining based flow cytometric analysis (reference value: 0.5%). The format is functional.
The next data set relates to HFF-1. The data set can be described thus: Cytotoxicity against HFF-1 cells at 500 to 2500 nM in presence of TNF by cell titre glo assay. Format: toxicity, cell-based. Particulars: human, hff-1, 2.5 µM; dose 500-2500 nM.
The test system of data set [23] is A549. The data set is described as follows: Induction of apoptosis in human A549 cells assessed as necrotic cells at 1 uM by annexin V-PI based flow cytometric analysis (reference value: 1.6%). The format is functional.
Data set [24] has as its system A549. The data set is described as follows: Induction of apoptosis in human A549 cells assessed as necrotic cells at 1 uM in presence of cisplatin by annexin V-PI based flow cytometric analysis (reference value: 1.6%). Format: functional.
Data set [25] is described as follows: Toxicity in SCID mouse xenografted with human A549 cells assessed as body weight loss administered at 80 mg/kg, ip for 28 days relative to control. Format: organism-based. To be noted: in vivo, 672 h, time 28 day.
The test system of data set [26] is A549. The data set is described as follows: Antitumor activity against human A549 cells assessed as test to control tumor ratio at 50 mg/kg, ip for 28 days relative to control. Format: functional. To be noted: time 28 day.
Data set [27] relates to NCI-H460. The data set is described as follows: Induction of cell cycle arrest in human NCI-H460 cells assessed as accumulation of cells at S phase at 1 uM for 24 hrs by Click-iT EdU Alexa Fluor 647 flow cytometric assay kit analysis (reference value: 54%). Format: functional.
The test system of data set [28] is DV-90. The data set is described as follows: Induction of cell cycle arrest in human DV-90 cells assessed as accumulation of cells at G0/G1 phase at 0.5 uM for 24 hrs by Click-iT EdU Alexa Fluor 647 flow cytometric assay kit analysis (reference value: 47%). Format: functional.
In data set [29] the test system is NCI-H460. The data set is described as follows: Induction of apoptosis in human NCI-H460 cells assessed as late apoptotic cells at 0.5 uM for 24 hrs by annexin V-PI staining based flow cytometric analysis (reference value: 3.7%). The format is functional.

Activity calls are given as the source filed them. No cut-off for these calls is given here.

Usually T/C stands for the ratio of treated to control.

For the molecule `Cc1sc2c(c1C)C(c1ccc(Cl)cc1)=N[C@@H](CC(=O)OC(C)(C)C)c1nnc(C)n1-2`, the Activity turned out to be 1% in the data set on NCI-H460 [1]; 55% in the data set on NCI-H460 [2]; 44% with NCI-H460 [3]; 15% in the data set with DV-90 [4]; 18% in the data set with DV-90 [5]; 24% in the data set on DV-90 [6]. The Activity is recorded as 27% with DV-90 [7]; 45% in the data set with NCI-H460 [8]; 1% with NCI-H460 [9]; 57% in the data set on NCI-H460 [10]; 41% in the data set on NCI-H460 [11]; 54% in the data set on NCI-H460 [12]. The Activity in the data set with NCI-H460 [13] is 1%; in the data set with NCI-H460 [14], 45%; in the data set with NCI-H460 [15], 54%; in the data set on NCI-H460 [16] it was 1%; in the data set with NCI-H460 [17] it was 3.7%; in the data set with NCI-H1373 [18], “Tde”. For the same molecule, the Activity in the data set with NCI-H1373 [22] is listed as 6.1%; with HFF-1, “Non-Toxic”; in the data set on A549 [23], 0.6%; in the data set with A549 [24], 10.3%; in data set [25], 7%. In addition, the result with NCI-H2347, with DV-90 [19], in the data set on NCI-H460 [20] and in the data set with A549 [21] was Active. The T/C in the data set with A549 [26] turned out to be 79%.

With `CCNC(=O)C[C@@H]1N=C(c2ccc(Cl)cc2)c2cc(OC)ccc2-n2c(C)nnc21` [MOLIBRESIB], the Activity in the data set on NCI-H460 [1] is 1%; with NCI-H460 [2], 53%; in the data set on NCI-H460 [3], 46%; in the data set on NCI-H460 [8], 49%; with NCI-H460 [9] it was 1%; in the data set with NCI-H460 [10], 54%. Also, the Activity was 45% in the data set with NCI-H460 [11]; 49% with NCI-H460 [12]; 1% in the data set with NCI-H460 [13]; 51% with NCI-H460 [14]; 47% in the data set with NCI-H460 [15]; 1% in the data set on NCI-H460 [16]. Moreover, the Activity in the data set on NCI-H460 [27] was determined as 47%.

`Cc1sc2c(c1C)C(c1ccc(Cl)cc1)=N[C@@H](CC(=O)Nc1ccc(O)cc1)c1nnc(C)n1-2` [BIRABRESIB]: the Activity with NCI-H460 [1] amounted to 1%; in the data set with DV-90 [4], 17%; in the data set on DV-90 [5], 17%; in the data set on DV-90 [6], 21%; in the data set with DV-90 [7], 20%; in the data set on NCI-H460 [9], 1%. Besides, the Activity in the data set with NCI-H460 [13] was 3%; in the data set with NCI-H460 [16] it was 1%; in the data set with DV-90 [28], 56%; in the data set with NCI-H460 [29] it was 4.6%.

For the origin of these results see ChEMBL document CHEMBL5712891, “Inhibition of BET bromodomain-dependent XIAP and FLIP expression sensitizes KRAS-mutated NSCLC to pro-apoptotic agents” (Cell Death Dis, 2016).
